This is an account of results in US10265383B2, “Treatment of radiation injury using ghrelin” (priority 2014, dated 2019).

One test has as its system rat jejunum. Description: Histopathology of jejunum after WBI (H&E, PAS). In kind it is in vivo. As to conditions: Day 7 after 10 Gy WBI. The procedure:
(§1) Animal model of whole body irradiation. Rats were exposed to whole body irradiation (WBI) of 10 Gray (Gy) using a Gammacell® 1000 Irradiator (Atomic Energy of Canada Ltd) [radiation source: Cesium-137 (^137Cs)] delivered at a dose rate of about 2.5 GY/min. The animals were sedated with intra-peritoneal pentobarbital (40 mg/kg BW) prior to irradiation. During radiation, the container rotated continuously in front of the radiation source for even exposure. The animals were then returned to their cages, and food and water were provided.
(§2) Blood and Tissue Collection after WBI. Rats exposed to 10 Gy WBI were treated with 20 nmol/rat human ghrelin once a day for 6 days starting at 24 h after radiation. At the 7th day, rats were euthanized, and blood, liver and the small intestine were removed under sterile conditions. The blood was allowed to clot and following centrifugation, the serum was transferred into pyrogenic free sterile tubes, and stored at −80° C. until further analysis. Liver (0.25 g) was snap-frozen in liquid nitrogen and stored at −80° C. for subsequent bacterial translocation analysis. Small intestine, 10-15 cm of the ileum, was harvested for gut permeability studies, 10 cm of jejunum was collected for histopathology, and the remaining 10 cm jejunal segment each was collected for RNA and protein analyses.
Histopathology. Jejunal segments were fixed in 1:10 buffered formalin and embedded in paraffin. Tissue blocks were sectioned at a thickness of 5 μm, transferred to glass slides, and stained with hematoxylin and eosin (H&E). The sections were observed under 100× magnification using a Nikon Eclipse Ti inverted microscope equipped with the Nikon Digital Sight Camera (Nikon Inc. Melville, N.Y.). Villus height was determined by measuring the distance from villus-crypt junction to the villus tip and crypt depth was determined by the distance from villus-crypt junction to basal crypt cells using the Nikon software. For each rat, 100 measurements of villus height and crypt depth were obtained from 5 circumferences. Periodic Acid Schiff (PAS) stained sections were used to quantify the number of goblet cells per villus. Three rats in each group were used to calculate the mean.

In another test the test system is Liver 16S rRNA. Description: Bacterial translocation, liver 16S rRNA real time PCR. In kind it is in vivo. As to conditions: Day 7 after 10 Gy WBI; 20 nmol/rat for 6 days from 24 h. The method, then:
as §1
Blood and Tissue Collection after WBI. Rats exposed to 10 Gy WBI were treated with 20 nmol/rat human ghrelin once a day for 6 days starting at 24 h after radiation. […]
DNA isolation and total bacteria quantification. […] Bacterial quantification was performed using 16S rRNA gene-targeted primer, forward: 5′-AAC GCG AAG AAC CTT AC-3′ (SEQ ID NO:2) and reverse: 5′-CGG TGT GTA CAA GAC CC-3′ (SEQ ID NO:3). […] The PCR conditions for total bacterial quantification were 95° C. for 1 min and 40 cycles of 95° C. for 20 sec and 60° C. for 1 min. […] Serially diluted genomic DNA of bacterial isolates was used as real time PCR control for bacterial quantification. A standard curve was generated from the bacterial DNA control and we consistently detected between 100 ng to 0.1 pg E. coli DNA. Bacterial counts were expressed as ng/mg liver tissue.

A further test concerns serum glucose. Briefly: Serum glucose level after WBI. In kind it is in vivo, rat. The note with it: Day 7 after 10 Gy WBI; WBI reduced it by 30%. The method, then:
as §1
Blood and Tissue Collection after WBI. Rats exposed to 10 Gy WBI were treated with 20 nmol/rat human ghrelin once a day for 6 days starting at 24 h after radiation. At the 7th day, rats were euthanized, and blood, liver and the small intestine were removed under sterile conditions. The blood was allowed to clot and following centrifugation, the serum was transferred into pyrogenic free sterile tubes, and stored at −80° C. until further analysis. Liver (0.25 g) was snap-frozen in liquid nitrogen and stored at −80° C. for subsequent bacterial translocation analysis. […]
Serum glucose and albumin levels. Serum levels of glucose and albumin were determined using Liquid Glucose Hexokinase Reagent Set and Albumin Reagent Set (Pointe Scientific, Inc.) respectively according to manufacturer's instructions.

Test [1] has as its system intestinal crypt apoptosis. Description: Intestinal TUNEL staining after WBI. In kind it is in vivo, rat. The note with it: jejunum, Day 7 after 10 Gy WBI; vehicle increased by 638% from sham. The method, then: as §1
Blood and Tissue Collection after WBI. Rats exposed to 10 Gy WBI were treated with 20 nmol/rat human ghrelin once a day for 6 days starting at 24 h after radiation. At the 7th day, rats were euthanized, and blood, liver and the small intestine were removed under sterile conditions. The blood was allowed to clot and following centrifugation, the serum was transferred into pyrogenic free sterile tubes, and stored at −80° C. until further analysis. […]
TUNEL staining. The presence of apoptotic cells in the gut sections was assessed at the 7th day following WBI using a terminal deoxynucleotide transferase dUTP nick-end labeling (TUNEL) staining kit (Roche Diagnostics, Indianapolis, Ind.). […] TUNEL-positive cells in crypt were counted in 10 fields/section under a fluorescence microscope (200×), and the number of cells/crypt are shown.

A further test concerns ICAM-1. Briefly: Jejunal ICAM-1 mRNA expression by real time PCR. As to conditions: jejunum, Day 7 after 10 Gy WBI; vehicle increased by 69%. In kind it is in vivo, rat. The procedure:
as §1, §2
Total RNA extraction and real time PCR. […]
(Quantitative PCR measures a nucleic acid by following its amplification.)

Where no end group is shown, it is not given here. The star is where a group is joined. Octanoyl = CCCCCCCC(=O)*

In the case of “ghrelin (GSS(Octanoyl)FLSPEHQRVQQRKESKKPPAKLQPR; listed as Homo sapiens) [human ghrelin]”, the “intestinal integrity and morphology (H&E)” value with rat jejunum (6 days treatment starting at 24 h) was “improved the intestinal integrity and morphology”. Besides, the “goblet cell number/villus, increase from Sham” value in the test with rat jejunum (jejunum PAS stain, vehicle 29%) was determined as 5%. For the same substance, the “crypt depth, reduction from Sham” value in the test on rat jejunum (jejunum, 20 nmol/rat for 6 days from 24 h, vehicle 14%) was found to be 2.8%. The “villus length, reduction from Sham” value with rat jejunum (jejunum, 20 nmol/rat for 6 days from 24 h, vehicle 19%) is 2.0%. Also, the “liver 16S rRNA gene (bacterial counts), reduction from Vehicle” value in the test with Liver 16S rRNA is 61%. Also, the serum glucose entry in the test on serum glucose is “restored to near Sham levels”. Besides, the “apoptotic (TUNEL positive) cells/crypt, reduction” value in test [1] was 62%. The “ICAM-1 mRNA expression, inhibition from the vehicle levels” value in the test on ICAM-1 turned out to be 51%.
